Experimental data: patent US20200000099A1 (priority 2017, published 2020)

Test system: Xylella fastidiosa (Xf)
Format: cell-based
Conditions: crude ethyl acetate extract of culture supernatant; activity traced to metabolite by NMR and MS

C/C=C/c1cc2c(c(=O)o1)C(=O)[C@@H](O)[C@H](C)O2 [radicinin]
anti-Xf activity of extract / metabolite: inhibitory activity
